# Patent publication US5550129A, “Benzopyranones, processes for their preparation and their use” (Willmar Schwabe GmbH & Co., priority 1992, dated 1996)
# Key:
# NMDA-induced death [1] = assay: NMDA test (25 mg/kg i.v.), protection against NMDA-induced death; format: in vivo, male NMRI mice; settings: Mus musculus; for ED50: 1 h, oral, one hour before NMDA 25 mg/kg i.v., dose protecting 50% of animals against NMDA-induced death; for responders at 5 mg/kg: 5 mg/kg oral, 1 hr before test, NMDA 25 mg/kg i.v., proportion of surviving animals, read-out: Protective action
# Procedure: The following method was used to determine the neuroprotective/anticonvulsive activity of the compounds according to the invention of the general formula I: […]
# In order to evaluate the neuroprotective activity, NMDA was administered intravenously in an amount of 25 mg/kg/10 ml to male NMRI mice having a body weight of 20-25 g. As a result of this administration the animals suffered clonic and in some cases also tonic convulsions, leading to death. Prevention of death is used as a criterion of the effectiveness of the investigated compounds.
# All experimental animals had free access to food and water before the experiments. The test and reference substances were administered orally as a suspension in 0.2% agar or water, by means of a pharyngeal probe, in some cases with the aid of solubilizers such as PEG-400. Control animals received the same volume of solvents, if necessary with the addition of solubilizers. One hour after administration of the substance NMDA was administered intravenously and the occurrence of convulsions was observed.
# The results of the tests carried out (NMDA 25 mg i.v.) at doses of 5 mg of the compounds according to the invention per kg body weight compared to known NMDA antagonists are given in Table 1. The percentage proportion of the surviving animals is given as % effect.
# Table 1 also gives as ED-50 values those doses of the substances according to the invention and other NMDA antagonists, which in the NMDA i.v. test (25 mg/kg) one hour after administration protected 50% of the animals against NMDA-induced death.
# The ED-50 values were determined according to the method of Lichtfield and Wilcoxon, J. Pharmacol. exp. Therapeut. 96, 99 (1949), in each case using 4-5 groups of animals each containing 10 animals per dose stage.
# NMDA-induced death [2] = assay: as above; format: in vivo, male NMRI mice; settings: Mus musculus, 1 hr before test, NMDA 25 mg/kg i.v., proportion of surviving animals, read-out: Protective action; for responders at 50 mg/kg: 50 mg/kg oral; for responders at 20 mg/kg: 20 mg/kg oral
Structure (SMILES),ED50 (NMDA-induced death [1]) [mg/kg],responders at 50 mg/kg (NMDA-induced death [2]) [%],responders at 5 mg/kg (NMDA-induced death [1]) [%],responders at 20 mg/kg (NMDA-induced death [2]) [%]
"COc1ccc2c(c1)[C@]13CCCC[C@@H]1[C@H](C2)N(C)CC3 [Dextromethorphan, reference compound]",66.7,50,,
"COc1ccc2c(C)c(CCN3CCN(c4ccccc4OC)CC3)c(=O)oc2c1 [Example 1, 7-methoxy-3-{2-[4-(2-methoxyphenyl)-1-piperazinyl]ethyl}-4-methyl-2H-1-benzopyran-2-one]",0.8,,87.5,
"COc1cc2oc(=O)c(CCN3CCN(c4ccccc4OC)CC3)c(C)c2cc1O [Example 2, 6-hydroxy-7-methoxy-3-{2-[4-(2-methoxyphenyl)-1-piperazinyl]ethyl}-4-methyl-2H-1-benzopyran-2-one]",0.2,,100,
"COc1cc2oc(=O)c(CCN3CCN(c4ccccc4)CC3)c(C)c2cc1OC [Example 3, 6,7-dimethoxy-4-methyl-3-[2-(4-phenyl-1-piperazinyl)ethyl]-2H-1-benzopyran-2-one]",,,50,
"COc1cc2oc(=O)c(CCN3CCN(c4ccccc4OC)CC3)c(C)c2cc1OC [Example 4, 6,7-dimethoxy-3-{2-[4-(2-methoxyphenyl)-1-piperazinyl)ethyl]-4-methyl-2H-1-benzopyran-2-one]",0.4,,100,
"CCOc1cc2c(C)c(CCN3CCC(c4ccccc4)CC3)c(=O)oc2cc1OC [Example 5, 6-ethoxy-7-methoxy-4-methyl-3-[2-(4-phenyl-1-piperidinyl)ethyl]-2H-1-benzopyran-2-one]",4.1,,75,
"CCOc1cc2c(C)c(CCN3CCN(c4ccccc4)CC3)c(=O)oc2cc1OC [Example 6, 6-ethoxy-7-methoxy-4-methyl-3-[2-(4-phenyl-1-piperazinyl)ethyl]-2H-1-benzopyran-2-one]",2,,87.5,
"CCOc1cc2c(C)c(CCN3CCN(c4ccccc4OC)CC3)c(=O)oc2cc1OC [Example 7, 6-ethoxy-7-methoxy-3-{2-[4-(2-methoxyphenyl)-1-piperazinyl]ethyl}-4-methyl-2H-1-benzopyran-2-one]",0.4,,100,
"COc1cc2oc(=O)c(CCN3CCN(c4ccccc4OC)CC3)c(C)c2cc1OC(C)C [Example 8, 7-methoxy-3-{2-[4-(2-methoxyphenyl)-1-piperazinyl]ethyl}-4-methyl-6-(1-methylethoxy)-2H-1-benzopyran-2-one]",0.7,,100,
"CCS(=O)(=O)Oc1cc2c(C)c(CCN3CCN(c4ccccc4OC)CC3)c(=O)oc2cc1OC [Example 9, 6-(ethanesulphonyloxy)-7-methoxy-3-(2-[4-(2-methoxyphenyl)-1-piperazinyl]-ethyl)-4-methyl-2H-1-benzopyran-2-one]",0.6,,100,
"COc1ccccc1N1CCN(CCc2c(C)c3ccc(OC)c(OC)c3oc2=O)CC1 [Example 10, 7,8-dimethoxy-3-{2-[4-(2-methoxyphenyl)-1-piperazinyl]ethyl}-4-methyl-2H-1-benzopyran-2-one]",0.4,,100,
"CCOc1ccc2c(C)c(CCN3CCN(c4ccccc4OC)CC3)c(=O)oc2c1OCC [Example 11, 7,8-diethoxy-3-{2-[4-(2-methoxyphenyl)-1-piperazinyl]ethyl}-4-methyl-2H-1-benzopyran-2-one]",,,100,
"COc1cc2oc(=O)c(CCN3CCC(c4ccccc4)CC3)c(C)c2c(OC)c1OC [Example 12, 5,6,7-trimethoxy-4-methyl-3-[2-(4-phenyl-1-piperidinyl)ethyl]-2H-1-benzopyran-2-one]",3.4,,75,
"COc1cc2oc(=O)c(CCN3CCN(c4ccccc4)CC3)c(C)c2c(OC)c1OC [Example 13, 5,6,7-trimethoxy-4-methyl-3-[2-(4-phenyl-1-piperazinyl)ethyl]-2H-1-benzopyran-2-one]",,,62.5,
"COc1cc(OC)c2c(C)c(CCN3CCC(c4ccccc4)CC3)c(=O)oc2c1 [Example 14, 5,7-dimethoxy-4-methyl-3-[2-(4-phenyl-1-piperidinyl)ethyl]-2H-1-benzopyran-2-one]",2.2,,87.5,
"COc1cc(OC)c2c(C)c(CCN3CCN(c4ccccc4)CC3)c(=O)oc2c1 [Example 15, 5,7-dimethoxy-4-methyl-3-[2-(4-phenyl-1-piperazinyl)ethyl]-2H-1-benzopyran-2-one]",1,,87.5,
"COc1ccccc1N1CCN(CCc2c(C)c3c(O)cc(O)cc3oc2=O)CC1 [Example 16, 5,7-dihydroxy-3-{2-[4-(2-methoxyphenyl)-1-piperazinyl]ethyl}-4-methyl-2H-1-benzopyran-2-one]",0.2,,100,
"COc1cc(OC)c2c(C)c(CCN3CCN(c4ccccc4OC)CC3)c(=O)oc2c1 [Example 17, 5,7-dimethoxy-3-{2-[4-(2-methoxyphenyl)-1-piperazinyl]ethyl}-4-methyl-2H-1-benzopyran-2-one]",0.2,,100,
"CCOc1cc(OCC)c2c(C)c(CCN3CCN(c4ccccc4OC)CC3)c(=O)oc2c1 [Example 18, 5,7-diethoxy-3-{2-[4-(2-methoxyphenyl)-1-piperazinyl]ethyl}-4-methyl-2H-1-benzopyran-2-one]",0.6,,100,
"CCCOc1cc(OCCC)c2c(C)c(CCN3CCN(c4ccccc4OC)CC3)c(=O)oc2c1 [Example 19, 3-{2-[4-(2-methoxyphenyl)-1-piperazinyl]ethyl}-4-methyl-5,7-dipropoxy-2H-1-benzopyran-2-one]",,,100,
"CCOc1ccccc1N1CCN(CCc2c(C)c3c(OC)cc(OC)cc3oc2=O)CC1 [Example 20, 3-{2-[4-(2-ethoxyphenyl)-1-piperazinyl]ethyl}-5,7-dimethoxy-4-methyl-2H-1-benzopyran-2-one]",,,100,
"COc1cc(OC)c2c(C)c(CCN3CCN(c4ccccc4C)CC3)c(=O)oc2c1 [Example 21, 5,7-dimethoxy-4-methyl-3-{2-[4-(2-methylphenyl)-1-piperazinyl]ethyl}-2H-1-benzopyran-2-one]",,,87.5,
"COc1cc(OC)c2c(C)c(CCN3CCN(c4ccccc4F)CC3)c(=O)oc2c1 [Example 22, 3-{2-[4-(2-fluorophenyl)-1-piperazinyl]ethyl}-5,7-dimethoxy-4-methyl-2H-1-benzopyran-2-one]",,,100,
"COc1cc(OC)c2c(C)c(CCN3CCN(c4cccc(C(F)(F)F)c4)CC3)c(=O)oc2c1 [Example 23, 5,7-dimethoxy-4-methyl-3-{2-[4-(3-trifluoromethylphenyl)-1-piperazinyl]ethyl}-2H-1-benzopyran-2-one]",,,25,
"COc1cc(OC)c2c(C)c(CCN3CCC(O)(c4ccccc4)CC3)c(=O)oc2c1 [Example 24, 3-[2-(4-hydroxy-4-phenyl-1-piperidinyl)ethyl]-5,7-dimethoxy-4-methyl-2H-1-benzopyran-2-one]",,,25,
"COc1cc(OC)c2c(C)c(CCN3CCN(c4ccccc4O)CC3)c(=O)oc2c1 [Example 25, 3-{2-[4-(2-hydroxyphenyl)-1-piperazinyl]-ethyl}-5,7-dimethoxy-4-methyl-2H-1-benzopyran-2-one]",,,87.5,
"Fc1ccc(C(c2ccc(F)cc2)N2CCN(C/C=C/c3ccccc3)CC2)cc1 [Flunarizin, reference compound]",22.8,100,,
CNC1(c2ccccc2Cl)CCCCC1=O (stereo not shown) [Ketamin],,,,0
"COCCOC(=O)C1=C(C)NC(C)=C(C(=O)OC(C)C)C1c1cccc([N+](=O)[O-])c1 (stereo not shown) [Nimodipin, reference compound]",18.5,,,87.5
"COc1ccc(CCN(C)CCCC(C#N)(c2ccc(OC)c(OC)c2)C(C)C)cc1OC (stereo not shown) [Verapamil, reference compound]",17.3,,,87.5
